Data on four molecules can be found in publication PMC8178536 (Journal of Ethnopharmacology, 2021).

Like-named read-outs stand apart in the source and are kept apart here.

One may read the IC50 as the concentration needed to halve the response being measured. For orientation: Kd means the free concentration of one partner at which half of the binding sites on the other are occupied at equilibrium, for simple one-to-one binding. Low readings indicate tighter binding, high ones weaker binding.

The target in experiment [1] is ACE2-RBD interaction (human ACE2 / SARS-CoV-2 S protein RBD) (Severe acute respiratory syndrome coronavirus 2, UniProt P0DTC2). Description: biochemical. The experiment is classed as binding, human; SARS-CoV-2.
Experiment [2] concerns SARS-CoV-2 S protein-pseudoviruses, 293T-ACE2 cells. Description: microbe, parasite or virus in culture. The experiment is classed as cell-based.
The next experiment concerns the target SARS-CoV-2 RBD (Severe acute respiratory syndrome coronavirus 2, UniProt P0DTC2). Nature of the experiment: biochemical. The experiment is classed as binding.
The target in the next experiment is ACE2 (Homo sapiens, UniProt Q9BYF1). The experiment is classed as binding. The conditions noted are these: SPR, two-fold serial dilutions.
ACE2, sequence (Q9BYF1 18-740): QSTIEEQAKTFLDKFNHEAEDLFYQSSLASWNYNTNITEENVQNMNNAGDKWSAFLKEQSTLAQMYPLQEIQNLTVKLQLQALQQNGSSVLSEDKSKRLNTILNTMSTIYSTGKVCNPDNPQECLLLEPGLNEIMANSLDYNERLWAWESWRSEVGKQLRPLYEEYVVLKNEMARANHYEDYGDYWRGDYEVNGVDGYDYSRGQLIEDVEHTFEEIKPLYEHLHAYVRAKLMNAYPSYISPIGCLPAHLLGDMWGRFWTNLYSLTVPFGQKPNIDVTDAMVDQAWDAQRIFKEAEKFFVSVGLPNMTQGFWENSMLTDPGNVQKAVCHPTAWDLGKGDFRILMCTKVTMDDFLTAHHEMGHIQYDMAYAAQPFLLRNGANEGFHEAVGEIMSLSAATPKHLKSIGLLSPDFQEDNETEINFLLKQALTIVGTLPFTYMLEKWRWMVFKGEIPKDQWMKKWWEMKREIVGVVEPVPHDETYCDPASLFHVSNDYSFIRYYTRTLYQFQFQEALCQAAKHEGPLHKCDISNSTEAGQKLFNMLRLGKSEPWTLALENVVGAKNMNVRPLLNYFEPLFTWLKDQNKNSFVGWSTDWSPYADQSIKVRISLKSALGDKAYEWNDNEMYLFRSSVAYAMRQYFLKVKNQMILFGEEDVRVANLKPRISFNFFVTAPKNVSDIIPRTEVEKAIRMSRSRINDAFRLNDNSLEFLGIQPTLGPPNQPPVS
The test system of experiment [3] is SARS-CoV-2 S protein-pseudoviruses, Calu-3 cells. The experiment is classed as cell-based.
The mark [4] stands for this setting: Severe acute respiratory syndrome coronavirus 2, 293T/ACE2, read-out: IC50, infectivity of S protein-pseudoviruses to 293T-ACE2 cells.

On to `O=C(O)c1cc(O)c2cc(O)ccc2n1` [Compound 1, 4,6-dihydroxyquinoline-2-carboxylic acid], for which the half-maximal inhibitory concentration (IC50) in experiment [1] is 580 nM; in experiment [2] (setting [4]), 1090 nM. Also, on SARS-CoV-2 RBD, the affinity, expressed as Kd, was 600 nM.
In the case of `O=C(O)c1cc(O)c2ccccc2n1` [Compound 2, 4-hydroxyquinoline-2-carboxylic acid], the figures for the IC50 in experiment [1] and in experiment [2] (setting [4]) were 70 nM and 440 nM, respectively. Also, the “binding to immobilized ACE2” value at ACE2 is given as “low or no binding”. Moreover, the “infectivity of SARS-CoV-2 S protein-pseudoviruses to Calu-3 cells” value in experiment [3] is “abolished the infectivity”. The molecule further showed a Kd on SARS-CoV-2 RBD of 5280 nM.
Regarding soluble recombinant human ACE2, in experiment [2] (read-out: IC50, entry of S protein-pseudoviruses into 293T-ACE2 cells), the IC50 worked out at 69.6 nM.
Take `COc1ccc2nc(C(=O)O)cc(O)c2c1` [Compound 3, 4-hydroxy-6-methoxyquinoline-2-carboxylic acid]: the IC50 was 150 nM in experiment [1] and 750 nM in experiment [2] (setting [4]). Also, the Kd on SARS-CoV-2 RBD worked out at 5370 nM.
